The source of these data is article PMC3923664, “A Long-Chain Flavodoxin Protects Pseudomonas aeruginosa from Oxidative Stress and Host Bacterial Clearance” (PLoS Genetics, 2014).

The target in one test is T1, FldA (Escherichia coli, UniProt P61949).
T1 construct: purified; preparation not described
T1 sequence (P61949 2-176): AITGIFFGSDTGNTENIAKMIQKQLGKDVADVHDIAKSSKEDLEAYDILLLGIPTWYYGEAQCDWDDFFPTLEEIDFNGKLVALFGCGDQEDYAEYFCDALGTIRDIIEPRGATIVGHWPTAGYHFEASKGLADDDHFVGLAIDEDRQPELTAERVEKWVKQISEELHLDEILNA
Briefly: UV-visible absorption spectrum of purified holoprotein. Format: binding. Conditions: co-purified prosthetic group; 50 mM Tris-HCl pH 8.5.

Another test deals with T2, IsiB (Nostoc sp. PCC 7119, UniProt P0A3E0).
T2 construct: recombinant, expressed in E. coli and purified after Fillat et al; long-chain flavodoxin
T2 sequence (P0A3E0 2-170): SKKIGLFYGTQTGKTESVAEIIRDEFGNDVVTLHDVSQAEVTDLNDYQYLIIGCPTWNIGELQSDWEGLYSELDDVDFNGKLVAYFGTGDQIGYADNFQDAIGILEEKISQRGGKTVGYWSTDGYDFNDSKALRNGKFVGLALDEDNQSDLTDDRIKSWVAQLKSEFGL
The test is described as above. Format: binding. Conditions: co-purified prosthetic group; 50 mM Tris-HCl pH 8.5.

Consider `Cc1cc2nc3c(=O)[nH]c(=O)nc-3n(C[C@H](O)[C@H](O)[C@H](O)COP(=O)(O)O)c2cc1C` [FMN], for which the “UV-visible absorption spectrum of purified holoprotein” value on FldA was “is strongly red-shifted in the flavodoxins from Anabaena and E. coli (Figure 2A)”; at IsiB, “is strongly red-shifted in the flavodoxins from Anabaena and E. coli (Figure 2A)”.
